Test results as given in patent publication US20220364065A1, “COMPOSITION FOR REMOVING PLURIPOTENT STEM CELLS AND METHOD OF REMOVING PLURIPOTENT STEM CELLS” (NATIONAL UNIVERSITY CORPORATION HOKKAIDO UNIVERSITY, priority 2018, published 2022).
Entries after “also recorded” stand apart in the source; their conditions may differ.

Tests used:
mouse astrocytes = experiment: MTT assay, viability of mouse astrocytes; assay type: cell-based; conditions: 10 μM BRQ, 3 days
Description: (§1) One thousand cells were seeded into each well of a 96-well plate and cultured for 3 days in medium (200 μL/well) supplemented with only DMSO at a final concentration of 0.1% or in medium (200 μL/well) supplemented with each dihydroorotate dehydrogenase (DHODH) inhibitor. The medium used was the appropriate culture solution for each cell as described above.
(§2) The concentration of each DHODH inhibitor added to the medium was a 2-fold dilution series starting from 200 μM.
(§3) As a background, a well containing medium only was prepared, and as a control, a well was also prepared in which medium containing Triton X-100 (final concentration 0.2%) was added to the cells.
(§4) Then, 5 μL of MTT (5 mg/ml, manufactured by Wako) was added to each well, and the cells were incubated at 37° C. for 2 to 3 hours. Then, the medium was replaced with 100 μL of DMSO to lyse the cells, and the absorbance of these cell lysates at a wavelength of 570 nm was measured with a microplate reader (manufactured by Bio-Rad, Benchmark model). In addition, based on the obtained absorbance, the cell viability was calculated by the following formula.
(§5) Cell viability (%)=(absorbance in wells with DHODH inhibitor-absorbance in background)/(absorbance in control-absorbance in background)×100.

[1] = tested on: mouse neural stem cells (mNSC); experiment: MTT assay, viability of mouse neural stem cells; assay type: cell-based; conditions: 10 μM BRQ, 3 days
Description: as §1, §2, §3, §4, §5

[2] = tested on: NT2: human embryonal carcinoma (EC) cells; experiment: MTT assay, viability of NT2 cells; assay type: cell-based; conditions: 10 μM BRQ, 3 days
Description: as §1, §2, §3, §4
Cell viability (%)=(absorbance in wells with DHODH inhibitor-absorbance in background)/(absorbance in control-absorbance in background)×100. […]

mouse iPS cells [3] = experiment: Teratoma formation from pretreated iPS cells in NOD/SCID mice; assay type: in vivo; conditions: iPS cells pretreated 2 days with 10 μM BRQ, subcutaneous in NOD/SCID mice, 4 weeks
Description: The viable cells (1×10^6) were suspended in 50 μl of Matrigel (manufactured by BD Biosciences) and injected subcutaneously into the buttocks of 5-8-week-old NOD/SCID mice anesthetized with 10% pentobarbital. Four weeks after the injection, the mice were sacrificed to death, and the tumors were removed and photographed for their size measurement according to the method described in Tsukamoto Y, et al., Stem Cells. 2016; 34(8): 2016-2025. Based on the measurement values obtained, the volume of the tumors was calculated by the following formula.
Volume of tumor (cm^3)=major diameterxminor diameterxminor diameter×½.
Then, 4 weeks after transplantation, the tumors were removed and observed.

[4] = tested on: teratomas formed from mouse iPS cells; experiment: Anti-teratoma activity in NOD/SCID mice, iPS cell-derived tumors; assay type: in vivo
Description: (§6) For tumors, 10-μm-thick sections were prepared and immunostained using the methods described by Kondo T. and Raff M., EMBO J. 2000; 19(9): 1998-2007, and Takanaga H, et al., Stem Cells. 2009; 27(1): 165-174. The following antibodies were used for this immunostaining.
(§7) TOCRIS) PBS solution was administered daily intraperitoneally to mice bearing subcutaneous tumors. Five days after intraperitoneal administration, the mice were sacrificed to death, and the tumors were removed and photographed for pathological analysis according to the method described in Tsukamoto Y, et al., Stem Cells. 2016; 34(8): 2016-2025.
(§8) Next, sections of these tumors were prepared, immunolabeled for the proliferation marker Ki67, pluripotent stem cell markers (Oct4 and Nanog), and differentiation markers (ATF, βIII tubulin, and SMA), and observed.

[5] = tested on: mouse neural stem cells and mouse iPS cells; experiment: Mixed culture of neural stem cells and iPS cells, Nestin/Nanog immunostaining; assay type: cell-based; conditions: 10 μM BRQ, 3 days
Description: (§9) The cells were fixed and immunostained as described in Kondo et al., Genes Dev. 2004, Vol. 18, Issue 23, pp. 2963-72. […] For the culture of mNSCs, PDL+fibronectin-coated ones were used (see Johe KK et al., Genes Dev. 1996, Vol. 10, Issue 24, pp. 3129 to 3140). For the culture of ES cells and iPS cells, gelatin-coated ones were used.
(§10) For immunostaining, the cells were first washed once with PBS, then fixed by adding 4% paraformaldehyde and incubating for 10 minutes at room temperature. The cells were replaced with PBS containing 0.3% Triton X100 and incubated for 5 minutes at room temperature, then replaced with PBS containing 0.3% Triton X100 and 10% FCS (blocking solution) and incubated for 30 minutes at room temperature. The solution was replaced with primary antibody solution diluted in blocking solution and incubated for 2 hours at room temperature. After washing three times with PBS, secondary antibody and DAPI solution diluted with blocking solution were added and incubated at room temperature for 2 hours. After washing three times with PBS, the cells were sealed with anti-fading agent (manufactured by DAKO, code number: 53023) and observed under a microscope. […] In addition, fluorescence images were acquired with an Axiolmager M1 microscope (manufactured by Carl Zeiss).
(§11) The cells were then analyzed by immunostaining as described above.

[6] = Side effects in treated tumor-bearing mice; assay type: in vivo; conditions: NOD/SCID mice, BRQ intraperitoneally
mouse iPS cells [7] = experiment: Cell proliferation and cell death (BrdU uptake, Ki67, Casp3 immunostaining), iPS cells; assay type: cell-based; conditions: BRQ 2 days
Description: as §9
as §10, with “Zeiss). […]” for “Zeiss).”

[8] = tested on: mouse neural stem cells and mouse ES cells; experiment: Mixed culture of neural stem cells and ES cells, Nestin/Nanog immunostaining; assay type: cell-based; conditions: 10 μM BRQ, 3 days
Description: as §9, §10, §11

[9] = tested on: teratomas formed from mouse ES cells; experiment: Anti-teratoma activity in NOD/SCID mice, ES cell-derived tumors; assay type: in vivo
Description: as §6, §7, §8

mouse iPS cells [10] = experiment: Quantitative RT-PCR of Sox2, Oct4, Nanog, iPS cells; assay type: cell-based; conditions: 10 μM BRQ, 2 days
Description: First, total RNA was prepared from cells using the RNeasy kit (manufactured by Qiagen), and cDNA was synthesized using the Transcriptor First Strand cDNA Synthesis Kit (manufactured by Roche Applied Science).
Then, the cDNA was used as a template, and Thunderbird Cyber qPCR Mix (manufactured by TOYOBO) and Step One Plus (manufactured by Thermo Fisher Scientific) were used to perform real-time PCR. The reaction conditions were set at 95° C. for 15 seconds and 60° C. for 30 seconds for 40 cycles, and the oligonucleotide primers shown below were used to amplify each target gene.
Note that the expression level of each target gene detected in this way was normalized by the relative quantification method (delta delta Ct method) based on the expression level of 18S ribosomal RNA.

## Cc1c(-c2ccc(-c3ccccc3F)cc2)nc2ccc(F)cc2c1C(=O)O [BRQ, 6-fluoro-2-(2′-fluoro-1,1′-biphenyl-4-yl)-3-methyl-4-quinoline-sodium carboxylate]
Mouse astrocytes
  cytotoxic activity / sensitivity (viability, MTT assay): hyposensitive; also recorded: no significant cytotoxic activity
[1]
  cytotoxic activity / sensitivity (viability, MTT assay): hyposensitive; also recorded: no significant cytotoxic activity
[2]
  cytotoxic activity (viability, MTT assay): significant cytotoxic activity
Mouse iPS cells [3]
  tumor formation from pretreated cells: did not proliferate
[4]; iPS cell-derived tumors
  number of Oct4-positive cells and Nanog-positive cells in tumors: significantly decreased
[4]; iPS cell-derived tumors, BRQ intraperitoneally
  tumor proliferation: suppressed
[4]; iPS cell-derived tumors, BRQ- vs DMSO-treated
  cells expressing differentiation markers (ATF, βIII tubulin, SMA) in tumors: similarly contained in both tumors
[4]; iPS cell-derived tumors, compared to DMSO-treated tumors
  Ki67-positive proliferating cells in tumors: significantly reduced
[4]; iPS cell-derived, BRQ intraperitoneally (DMSO control 1.37 cm^3)
  sizes of teratomas: 0.32 cm^3
[5]; ES cell medium
  iPS cells (Nanog) in mixed culture: lost
[5]; mixed with iPS cells
  cytotoxicity to neural stem cells (Nestin) in mixed culture: no obvious cytotoxicity
[6]
  side effects in treated mice: no visible side effects
Mouse iPS cells [7]
  CASP3 activation (Casp3 immunostaining): strongly activated
  cell proliferation (BrdU uptake assay): reduced the proliferation
[8]; ES cell medium
  ES cells (Nanog) in mixed culture: lost
[8]; mixed with ES cells
  cytotoxicity to neural stem cells (Nestin) in mixed culture: no obvious cytotoxicity
[9]; ES cell-derived tumors
  number of Oct4-positive cells and Nanog-positive cells in tumors: significantly decreased
[9]; ES cell-derived tumors, BRQ intraperitoneally
  tumor proliferation: suppressed
[9]; ES cell-derived tumors, BRQ- vs DMSO-treated
  cells expressing differentiation markers (ATF, βIII tubulin, SMA) in tumors: similarly contained in both tumors
[9]; ES cell-derived tumors, compared to DMSO-treated tumors
  Ki67-positive proliferating cells in tumors: significantly reduced
[9]; ES cell-derived, BRQ intraperitoneally (DMSO control 0.55 cm^3)
  sizes of teratomas: 0.12 cm^3
Mouse iPS cells [10]
  expression levels of marker genes (Sox2, Oct4, Nanog): generally decreased
